Measured values as given in article PMC11881035, “^68Ga-Labeled Glycopeptides as Effective Tools for Liver Function Imaging” (Molecular Pharmaceutics, 2025).
Where two headings read alike, the source gives them in different places. Where a SMILES comes first, the peptide text is derived from it. The star is where a group is joined. X1 = O=C(CCCCc1cn([C@@H]2O[C@H](CO)[C@H](O)[C@H](O)[C@H]2O)nn1)*; NODAGA = O=C(O)CN1CCN(CC(=O)O)CCN(C(CCC(=O)*)C(=O)O)CC1; GABA = NCCCC(=O)O

Assays:
[1] = protein binding in human serum; assay type: in vitro ADME; details: human, serum
Experimental: (§1) The ^68Ge/^68Ga generator, devices for analytical HPLC, semipreparative HPLC, mass spectrometry, radio-thin layer chromatography, gamma counter and animal models for biodistribution and imaging studies including the image reconstruction procedures were the same as described before.[22] Stability assays in PBS and human blood serum, protein binding as well as determination of log D values followed established protocols.[25] Binding affinities (IC50) of selected ligands were determined in an isolated receptor-based assay according to a previously published procedure with minor modifications.[22] Dilutions of nonradioactive complexes were made with PBS + 0.1% BSA (10^–5–10^–12 M). Preparation of [^125I]I-Asialoorosomucoid which serves as the radioactive standard ligand has been published recently.[21]

log D determination = assay type: physicochemical
Experimental: as §1

[2] = biodistribution in healthy BALB/c mice; details: mouse, in vivo
Experimental: as §1
(§2) Animal experiments were performed in accordance with the Austrian animal experiments law (BGBl. I Nr. 114/2012) and the institution’s animal welfare standards as approved by the Austrian Federal Ministry of Education, Science and Research (BMBWF, 2022–0.311.708). Imaging experiments were conducted at Werner Siemens Imaging Center (Tübingen, Germany) according to the German animal welfare act as approved by the local authorities (R5/19 G, R09/21 G).
(§3) Figure 2 Biodistribution data (% ID/g) of ^68Ga-labeled NODAGA-GalNAc-NonaLysan, NODAGA-NonaLysan, NODAGA-HexaLysan, and NODAGA-TriLysan in healthy BALB/c mice at 10, 30, and 60 min p.i. (100 pmol, 1 MBq).

[3] = test system: healthy female BALB/c mice; assay: biodistribution in healthy BALB/c mice; details: mouse, in vivo
Experimental: as §1, §2, §3

[4] = complex stability in human blood serum; assay type: in vitro ADME
Experimental: as §1

complex stability in PBS = assay type: physicochemical
Experimental: as §1

[5] = 2 min, read-out: protein binding (%) (converted)
[6] = 30 min, read-out: protein binding (%) (converted)

NC(=O)CNC(=O)CNC(=O)[C@H](CCCCNC(=O)CCCCc1cn([C@@H]2O[C@H](CO)[C@H](O)[C@H](O)[C@H]2O)nn1)NC(=O)CNC(=O)CNC(=O)[C@H](CCCCNC(=O)CCCCc1cn([C@@H]2O[C@H](CO)[C@H](O)[C@H](O)[C@H]2O)nn1)NC(=O)CNC(=O)CNC(=O)[C@H](CCCCNC(=O)CCCCc1cn([C@@H]2O[C@H](CO)[C@H](O)[C@H](O)[C@H]2O)nn1)NC(=O)CNC(=O)CNC(=O)[C@H](CCCCNC(=O)CCCCc1cn([C@@H]2O[C@H](CO)[C@H](O)[C@H](O)[C@H]2O)nn1)NC(=O)CNC(=O)CNC(=O)[C@H](CCCCNC(=O)CCCCc1cn([C@@H]2O[C@H](CO)[C@H](O)[C@H](O)[C@H]2O)nn1)NC(=O)CNC(=O)CNC(=O)[C@H](CCCCNC(=O)CCCCc1cn([C@@H]2O[C@H](CO)[C@H](O)[C@H](O)[C@H]2O)nn1)NC(=O)CCCNC(=O)CCC(C(=O)O)N1CCN(CC(=O)O)CCN(CC(=O)O)CC1 (stereo partly drawn) [[^68Ga]Ga-NODAGA-HexaLysan, metal not drawn] ({NODAGA-GABA}-K(X1)GGK(X1)GGK(X1)GGK(X1)GGK(X1)GGK(X1)GG-NH2)
fraction unbound [1, 5]: 0.824
fraction unbound [1, 6]: 0.782
fraction unbound ([1]; protein binding (%)): 0.785
logD (log D determination): -4.34
tissue uptake at 10 min ([2]; Blood uptake): 2.1 ± 0.04 %ID/g
tissue uptake at 0.5 h ([2]; Blood uptake): 0.6 ± 0.1 %ID/g
tissue uptake at 1 h ([2]; Blood uptake): 1.1 ± 0.4 %ID/g
tissue uptake at 10 min ([2]; Femur uptake): 0.5 ± 0.1 %ID/g
tissue uptake at 0.5 h ([2]; Femur uptake): 0.3 ± 0.03 %ID/g
tissue uptake at 10 min ([2]; Heart uptake): 0.9 ± 0.1 %ID/g
tissue uptake at 0.5 h ([2]; Heart uptake): 0.4 ± 0.1 %ID/g
tissue uptake at 1 h ([2]; Heart uptake): 0.3 ± 0.02 %ID/g
tissue uptake at 10 min ([2]; Intestine uptake): 1.2 ± 0.3 %ID/g
tissue uptake at 0.5 h ([2]; Intestine uptake): 4 ± 0.3 %ID/g
tissue uptake at 1 h ([2]; Intestine uptake): 5.9 ± 1.7 %ID/g
tissue uptake at 10 min ([2]; Kidneys uptake): 4.8 ± 0.3 %ID/g
tissue uptake at 0.5 h ([2]; Kidneys uptake): 1.9 ± 0.2 %ID/g
tissue uptake at 1 h ([2]; Kidneys uptake): 1.3 ± 0.3 %ID/g
tissue uptake at 10 min ([2]; Liver uptake): 54.8 ± 3 %ID/g
tissue uptake at 0.5 h ([2]; Liver uptake): 55.5 ± 7.4 %ID/g
tissue uptake at 1 h ([2]; Liver uptake): 45.9 ± 11.8 %ID/g
tissue uptake at 10 min ([2]; Lung uptake): 1.6 ± 0.2 %ID/g
tissue uptake at 0.5 h ([2]; Lung uptake): 0.8 ± 0.1 %ID/g
tissue uptake at 1 h ([2]; Lung uptake): 0.6 ± 0.2 %ID/g
tissue uptake at 10 min ([2]; Muscle uptake): 0.9 ± 1.2 %ID/g
tissue uptake at 0.5 h ([2]; Muscle uptake): 0.6 ± 0.03 %ID/g
tissue uptake at 1 h ([2]; Muscle uptake): 0.4 ± 0.04 %ID/g
tissue uptake at 10 min ([2]; Pancreas uptake): 0.9 ± 0.1 %ID/g
tissue uptake at 0.5 h ([2]; Pancreas uptake): 0.7 ± 0.1 %ID/g
tissue uptake at 1 h ([2]; Pancreas uptake): 0.5 ± 0.1 %ID/g
tissue uptake at 10 min ([2]; Spleen uptake): 0.5 ± 0.1 %ID/g
tissue uptake at 0.5 h ([2]; Spleen uptake): 0.2 ± 0.1 %ID/g
tissue uptake at 1 h ([2]; Spleen uptake): 0.2 ± 0.02 %ID/g
tissue uptake at 10 min ([2]; Stomach uptake): 1.3 ± 0.3 %ID/g
tissue uptake at 0.5 h ([2]; Stomach uptake): 1.2 ± 0.3 %ID/g
tissue uptake at 1 h ([2]; Stomach uptake): 0.4 ± 0.1 %ID/g
Liver uptake ([3]; 0.5 h): 55.7 ± 7.4 % ID/g
Femur uptake ([3]; 1 h): 0 % ID/g

NC(=O)CNC(=O)CNC(=O)[C@H](CCCCNC(=O)CCCCc1cn([C@@H]2O[C@H](CO)[C@H](O)[C@H](O)[C@H]2O)nn1)NC(=O)CNC(=O)CNC(=O)[C@H](CCCCNC(=O)CCCCc1cn([C@@H]2O[C@H](CO)[C@H](O)[C@H](O)[C@H]2O)nn1)NC(=O)CNC(=O)CNC(=O)[C@H](CCCCNC(=O)CCCCc1cn([C@@H]2O[C@H](CO)[C@H](O)[C@H](O)[C@H]2O)nn1)NC(=O)CCCNC(=O)CCC(C(=O)O)N1CCN(CC(=O)O)CCN(CC(=O)O)CC1 (stereo partly drawn) [[^68Ga]Ga-NODAGA-TriLysan, metal not drawn] ({NODAGA-GABA}-K(X1)GGK(X1)GGK(X1)GG-NH2)
complex stability in serum (% intact ligand) ([4]; 2 min): 99.9%
complex stability in serum (% intact ligand) ([4]; 30 min): 99.9%
complex stability in serum (% intact ligand) ([4]; 60 min): 99.9%
complex stability in serum (% intact ligand) ([4]; 120 min): 99.9%
complex stability in PBS (% intact ligand) (complex stability in PBS; 2 min): 99.7%
complex stability in PBS (% intact ligand) (complex stability in PBS; 30 min): 99.8%
complex stability in PBS (% intact ligand) (complex stability in PBS; 60 min): 99.8%
complex stability in PBS (% intact ligand) (complex stability in PBS; 120 min): 99.8%
fraction unbound [1, 5]: 0.924
fraction unbound [1, 6]: 0.945
fraction unbound ([1]; 60 min, read-out: protein binding (%) (converted)): 0.908
fraction unbound ([1]; 120 min, read-out: protein binding (%) (converted)): 0.864
logD (log D determination): -3.52
tissue uptake at 10 min ([2]; 10 min p.i., read-out: Blood uptake): 3.6 ± 0.1 %ID/g
tissue uptake at 10 min ([2]; 10 min p.i., read-out: Femur uptake): 0.9 ± 0.3 %ID/g
tissue uptake at 10 min ([2]; 10 min p.i., read-out: Heart uptake): 1.4 ± 0.01 %ID/g
tissue uptake at 10 min ([2]; 10 min p.i., read-out: Intestine uptake): 1.2 ± 0.3 %ID/g
tissue uptake at 10 min ([2]; 10 min p.i., read-out: Kidneys uptake): 7.6 ± 1.4 %ID/g
tissue uptake at 10 min ([2]; 10 min p.i., read-out: Liver uptake): 9.5 ± 1.6 %ID/g
tissue uptake at 10 min ([2]; 10 min p.i., read-out: Lung uptake): 2.6 ± 0.2 %ID/g
tissue uptake at 10 min ([2]; 10 min p.i., read-out: Muscle uptake): 0.9 ± 0.1 %ID/g
tissue uptake at 10 min ([2]; 10 min p.i., read-out: Pancreas uptake): 1 ± 0.04 %ID/g
tissue uptake at 10 min ([2]; 10 min p.i., read-out: Spleen uptake): 1 ± 0.01 %ID/g
tissue uptake at 10 min ([2]; 10 min p.i., read-out: Stomach uptake): 1.6 ± 0.2 %ID/g
tissue uptake at 0.5 h ([2]; 30 min p.i., read-out: Blood uptake): 1.6 ± 0.2 %ID/g
tissue uptake at 0.5 h ([2]; 30 min p.i., read-out: Femur uptake): 0.4 ± 0.02 %ID/g
tissue uptake at 0.5 h ([2]; 30 min p.i., read-out: Heart uptake): 0.6 ± 0.04 %ID/g
tissue uptake at 0.5 h ([2]; 30 min p.i., read-out: Intestine uptake): 1.1 ± 0.02 %ID/g
tissue uptake at 0.5 h ([2]; 30 min p.i., read-out: Kidneys uptake): 5 ± 0.02 %ID/g
tissue uptake at 0.5 h ([2]; 30 min p.i., read-out: Liver uptake): 9.4 ± 2 %ID/g
tissue uptake at 0.5 h ([2]; 30 min p.i., read-out: Lung uptake): 1.2 ± 0.1 %ID/g
tissue uptake at 0.5 h ([2]; 30 min p.i., read-out: Muscle uptake): 0.4 ± 0.04 %ID/g
tissue uptake at 0.5 h ([2]; 30 min p.i., read-out: Pancreas uptake): 0.4 %ID/g
tissue uptake at 0.5 h ([2]; 30 min p.i., read-out: Spleen uptake): 0.4 ± 0.02 %ID/g
tissue uptake at 0.5 h ([2]; 30 min p.i., read-out: Stomach uptake): 0.9 ± 0.1 %ID/g
tissue uptake at 1 h ([2]; 60 min p.i., read-out: Blood uptake): 0.3 ± 0.01 %ID/g
tissue uptake at 1 h ([2]; 60 min p.i., read-out: Femur uptake): 0.1 ± 0.01 %ID/g
tissue uptake at 1 h ([2]; 60 min p.i., read-out: Heart uptake): 0.2 ± 0.01 %ID/g
tissue uptake at 1 h ([2]; 60 min p.i., read-out: Intestine uptake): 1 ± 0.3 %ID/g
tissue uptake at 1 h ([2]; 60 min p.i., read-out: Kidneys uptake): 2 ± 0.3 %ID/g
tissue uptake at 1 h ([2]; 60 min p.i., read-out: Liver uptake): 9.2 ± 0.3 %ID/g
tissue uptake at 1 h ([2]; 60 min p.i., read-out: Lung uptake): 0.5 ± 0.1 %ID/g
tissue uptake at 1 h ([2]; 60 min p.i., read-out: Muscle uptake): 0.1 %ID/g
tissue uptake at 1 h ([2]; 60 min p.i., read-out: Pancreas uptake): 0.2 ± 0.01 %ID/g
tissue uptake at 1 h ([2]; 60 min p.i., read-out: Spleen uptake): 0.2 %ID/g
tissue uptake at 1 h ([2]; 60 min p.i., read-out: Stomach uptake): 0.3 ± 0.01 %ID/g
